From US10660877B2 (BRISTOL-MYERS SQUIBB COMPANY, priority 2016, dated 2020)
Where two headings read alike, the source gives them in different places.

Assays:
[1] = target: human TLR8 (Homo sapiens (Human), UniProt Q9NR97); assay: TLR8 inhibition reporter assay (HEK-Blue cells, SEAP reporter, R848 stimulation);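 also: compounds tested from 0.05 nM to 50 µM, 22 h at 37 °C, SEAP measured with HEK-Blue Detection, inhibition relative to agonist plus DMSO versus a known inhibitor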
[2] = target: human TLR9 (Homo sapiens (Human), UniProt Q9NR96); assay: TLR9 inhibition reporter assay (HEK-Blue cells, SEAP reporter, ODN2006 stimulation);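 also: compounds tested over 0.05 nM to 50 µM, 22 h incubation, inhibition taken as SEAP signal drop from agonist plus DMSO wells toward a known inhibitor control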
[3] = target: human TLR7 (Homo sapiens (Human), UniProt Q9NYK1); assay: TLR7 inhibition reporter assay (HEK-Blue cells, SEAP reporter, gardiquimod stimulation); assay type: cell-based
[4] = read-out: TLR8 IC50, HEK-Blue cells overexpressing human TLR8, R848 15.9 μM
[5] = read-out: TLR9 IC50, HEK-Blue cells overexpressing human TLR9, ODN2006 5 nM
[6] = HEK-Blue cells overexpressing human TLR7, gardiquimod 7.5 μM
[7] = TLR8 IC50, HEK-Blue cells overexpressing human TLR8, R848 15.9 μM
[8] = TLR9 IC50, HEK-Blue cells overexpressing human TLR9, ODN2006 5 nM

human TLR8, sequence (Q9NR97 27-1041): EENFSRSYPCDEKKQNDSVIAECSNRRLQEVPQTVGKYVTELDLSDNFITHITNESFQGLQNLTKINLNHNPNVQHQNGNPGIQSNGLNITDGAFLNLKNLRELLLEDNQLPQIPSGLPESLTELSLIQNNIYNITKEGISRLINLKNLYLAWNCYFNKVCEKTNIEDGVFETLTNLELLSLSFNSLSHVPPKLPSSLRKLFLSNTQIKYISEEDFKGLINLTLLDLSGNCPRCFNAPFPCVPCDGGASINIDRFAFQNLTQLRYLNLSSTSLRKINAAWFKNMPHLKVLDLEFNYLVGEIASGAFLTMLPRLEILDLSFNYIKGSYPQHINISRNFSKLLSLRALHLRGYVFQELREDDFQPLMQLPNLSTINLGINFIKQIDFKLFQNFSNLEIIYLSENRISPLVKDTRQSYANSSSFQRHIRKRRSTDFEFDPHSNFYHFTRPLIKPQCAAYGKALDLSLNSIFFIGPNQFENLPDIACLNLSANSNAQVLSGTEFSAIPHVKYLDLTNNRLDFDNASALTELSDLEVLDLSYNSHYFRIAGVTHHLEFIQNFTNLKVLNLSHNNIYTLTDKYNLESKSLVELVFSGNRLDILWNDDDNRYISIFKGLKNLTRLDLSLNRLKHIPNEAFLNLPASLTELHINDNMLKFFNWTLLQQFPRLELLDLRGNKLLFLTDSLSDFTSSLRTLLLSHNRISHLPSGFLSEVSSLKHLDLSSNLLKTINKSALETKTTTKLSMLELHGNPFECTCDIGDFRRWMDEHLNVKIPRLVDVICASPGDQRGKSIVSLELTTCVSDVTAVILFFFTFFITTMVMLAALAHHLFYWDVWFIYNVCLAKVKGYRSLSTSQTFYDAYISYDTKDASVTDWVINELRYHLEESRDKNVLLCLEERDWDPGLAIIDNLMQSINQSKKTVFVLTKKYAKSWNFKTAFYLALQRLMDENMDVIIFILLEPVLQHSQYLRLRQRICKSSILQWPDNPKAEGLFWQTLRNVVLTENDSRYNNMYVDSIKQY
human TLR9, sequence (Q9NR96 26-1032): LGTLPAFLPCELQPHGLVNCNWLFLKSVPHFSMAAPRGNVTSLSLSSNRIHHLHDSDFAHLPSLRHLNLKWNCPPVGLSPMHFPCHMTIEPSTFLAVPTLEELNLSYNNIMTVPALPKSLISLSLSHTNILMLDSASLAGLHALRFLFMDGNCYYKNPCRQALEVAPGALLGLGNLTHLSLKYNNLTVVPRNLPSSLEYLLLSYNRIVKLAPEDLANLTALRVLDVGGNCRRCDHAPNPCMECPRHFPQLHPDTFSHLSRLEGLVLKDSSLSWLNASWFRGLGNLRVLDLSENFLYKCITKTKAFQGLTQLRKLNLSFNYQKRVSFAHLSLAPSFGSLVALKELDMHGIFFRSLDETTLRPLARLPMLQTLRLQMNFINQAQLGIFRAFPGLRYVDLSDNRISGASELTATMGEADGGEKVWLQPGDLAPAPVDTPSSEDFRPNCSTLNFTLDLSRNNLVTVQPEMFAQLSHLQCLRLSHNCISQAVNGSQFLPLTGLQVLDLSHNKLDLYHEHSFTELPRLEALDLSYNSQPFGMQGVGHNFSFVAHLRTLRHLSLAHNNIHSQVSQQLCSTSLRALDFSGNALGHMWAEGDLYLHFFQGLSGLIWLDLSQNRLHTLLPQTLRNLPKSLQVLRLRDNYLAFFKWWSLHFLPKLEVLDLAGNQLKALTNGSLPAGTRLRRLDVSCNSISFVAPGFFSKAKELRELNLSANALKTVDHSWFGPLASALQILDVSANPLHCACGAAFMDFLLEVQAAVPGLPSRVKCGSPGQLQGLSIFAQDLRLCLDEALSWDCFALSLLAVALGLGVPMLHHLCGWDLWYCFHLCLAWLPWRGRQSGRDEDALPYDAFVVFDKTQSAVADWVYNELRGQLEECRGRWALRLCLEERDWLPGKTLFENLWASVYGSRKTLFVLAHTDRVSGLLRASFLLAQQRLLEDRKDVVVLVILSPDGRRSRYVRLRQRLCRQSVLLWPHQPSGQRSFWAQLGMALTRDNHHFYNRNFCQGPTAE
human TLR7, sequence (Q9NYK1 27-1049): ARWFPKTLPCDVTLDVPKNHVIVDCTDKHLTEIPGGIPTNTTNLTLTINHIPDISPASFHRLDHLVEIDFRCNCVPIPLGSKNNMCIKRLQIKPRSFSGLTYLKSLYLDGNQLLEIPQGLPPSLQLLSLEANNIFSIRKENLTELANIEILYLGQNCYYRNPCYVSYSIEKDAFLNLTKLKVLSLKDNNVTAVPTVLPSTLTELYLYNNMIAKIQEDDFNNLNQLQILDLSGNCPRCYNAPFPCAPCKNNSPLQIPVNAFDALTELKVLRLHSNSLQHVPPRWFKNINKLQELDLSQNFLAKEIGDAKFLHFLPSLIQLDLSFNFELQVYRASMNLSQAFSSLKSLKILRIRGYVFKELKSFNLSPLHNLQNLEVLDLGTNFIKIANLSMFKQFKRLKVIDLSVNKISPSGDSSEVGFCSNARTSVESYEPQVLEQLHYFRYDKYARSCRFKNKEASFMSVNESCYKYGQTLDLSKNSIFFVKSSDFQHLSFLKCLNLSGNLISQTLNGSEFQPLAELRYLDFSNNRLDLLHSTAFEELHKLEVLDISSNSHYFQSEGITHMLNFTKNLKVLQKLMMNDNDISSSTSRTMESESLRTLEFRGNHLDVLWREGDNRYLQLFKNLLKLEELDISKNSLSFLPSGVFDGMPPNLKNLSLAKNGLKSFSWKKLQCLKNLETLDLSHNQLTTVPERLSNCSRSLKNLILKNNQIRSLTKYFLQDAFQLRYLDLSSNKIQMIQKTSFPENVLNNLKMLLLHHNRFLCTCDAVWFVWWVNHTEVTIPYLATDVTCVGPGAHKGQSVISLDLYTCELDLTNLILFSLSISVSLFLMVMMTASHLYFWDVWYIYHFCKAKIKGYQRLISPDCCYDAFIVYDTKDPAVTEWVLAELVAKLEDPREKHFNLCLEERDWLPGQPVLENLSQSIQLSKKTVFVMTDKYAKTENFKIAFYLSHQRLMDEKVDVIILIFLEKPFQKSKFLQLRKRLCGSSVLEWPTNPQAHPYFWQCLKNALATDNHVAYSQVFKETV

Compound	IC50 [1, 4]	IC50 [2, 5]	IC50 [3, 6]	IC50 ([1]; read-out: TLR8 IC50, HEK-Blue cells, R848 15.9 μM)	IC50 ([2]; read-out: TLR9 IC50, HEK-Blue cells, ODN2006 5 nM)	IC50 ([3]; HEK-Blue cells, gardiquimod 7.5 μM)	IC50 [1, 7]	IC50 [2, 8]
CCC(=O)N1CCC(c2ccc3[nH]c(-c4cc(C)nc(C)c4)c(C(C)C)c3c2)CC1 [Example 206, 1-(4-(2-(2,6-dimethylpyridin-4-yl)-3-isopropyl-1H-indol-5-yl)piperidin-1-yl)propan-1-one]	100 nM	41900 nM	5.4 nM					
CNC(=O)CN1CCC(c2ccc3[nH]c(-c4cc(C)nc(C)c4)c(CC(F)F)c3c2)CC1 [Example 532, 2-(4-(3-(2,2-difluoroethyl)-2-(2,6-dimethylpyridin-4-yl)-1H-indol-5-yl)piperidin-1-yl)-N-methylacetamide]	81.8 nM	813 nM	17.4 nM					
Cc1cc(-c2[nH]c3cc(C(F)(F)F)c(C4CCN(CC5CCNC5)CC4)cc3c2C(C)C)ccn1 (stereo not drawn) [Example 873, 3-isopropyl-2-(2-methylpyridin-4-yl)-5-(1-(pyrrolidin-3-ylmethyl)piperidin-4-yl)-6-(trifluoromethyl)-1H-indole]				467 nM	96 nM	13.5 nM		
Cc1cc(-c2[nH]c3ccc(C4CCN(C(=O)CN5CCCC5=O)CC4)cc3c2C(C)C)cc(C)n1 [Example 154, 1-(2-(4-(2-(2,6-dimethylpyridin-4-yl)-3-isopropyl-1H-indol-5-yl)piperidin-1-yl)-2-oxoethyl)pyrrolidin-2-one]	29.5 nM	> 50000 nM	5.9 nM					
CCc1c(-c2ccnc(C)c2)[nH]c2ccc(C3CCN(C(=O)CCN(C)C)CC3)cc12 [Example 594, 3-(dimethylamino)-1-(4-(3-ethyl-2-(2-methylpyridin-4-yl)-1H-indol-5-yl)piperidin-1-yl)propan-1-one]	39.4 nM	610 nM	30.2 nM					
COc1cc(-c2[nH]c3ccc(C4CCN(C5CCNCC5)CC4)cc3c2C(C)C)ccn1 [Example 800, 5-([1,4′-bipiperidin]-4-yl)-3-isopropyl-2-(2-methoxypyridin-4-yl)-1H-indole]	185 nM	729 nM	167 nM					
Cc1cc(-c2[nH]c3ccc(C4CCN(C(=O)C5CCOC(C(C)C)C5)CC4)cc3c2C(C)C)ccn1 (stereo not drawn) [Example 598, (4-(3-isopropyl-2-(2-methylpyridin-4-yl)-1H-indol-5-yl)piperidin-1-yl)(2-isopropyltetrahydro-2H-pyran-4-yl)methanone]	374 nM	9940 nM	99.6 nM					
Cc1cc(-c2[nH]c3ccc(C4CCN(C(=O)CN5CCOC[C@H]5CO)CC4)cc3c2C(C)C)cc(C)n1 [Example 400, (R)-1-(4-(2-(2,6-dimethylpyridin-4-yl)-3-isopropyl-1H-indol-5-yl)piperidin-1-yl)-2-(3-(hydroxymethyl)morpholino)ethan-1-one]	16.8 nM	451 nM	3.4 nM					
Cc1cc(-c2[nH]c3ccc(C4CCN(C(=O)CNC5(C)CCOCC5)CC4)cc3c2C(C)C)cc(C)n1 [Example 374, 1-(4-(2-(2,6-dimethylpyridin-4-yl)-3-isopropyl-1H-indol-5-yl)piperidin-1-yl)-2-((4-methyltetrahydro-2H-pyran-4-yl)amino)ethan-1-one]			5.6 nM				21.4 nM	548 nM
CCc1c(-c2ccnc(N)c2)[nH]c2ccc(C3CCNCC3)cc12 [Example 69, 4-(3-ethyl-5-(piperidin-4-yl)-1H-indol-2-yl) pyridin-2-amine]	181 nM	114 nM	277 nM					
Cc1cc(-c2[nH]c3ccc(C4CCN(C(=O)CCN(C)C5COC5)CC4)cc3c2C(C)C)cc(C)n1 [Example 589, 1-(4-(2-(2,6-dimethylpyridin-4-yl)-3-isopropyl-1H-indol-5-yl)piperidin-1-yl)-3-(methyl(oxetan-3-yl)amino)propan-1-one]	27.6 nM	2110 nM	4.7 nM					
Cc1cc(-c2[nH]c3ccc(C4CCN(C(=O)c5cscn5)CC4)cc3c2C(C)C)ccn1 [Example 609, (4-(3-isopropyl-2-(2-methylpyridin-4-yl)-1H-indol-5-yl)piperidin-1-yl)(thiazol-4-yl)methanone]	214 nM	21500 nM	38.2 nM					
Cc1cc(-c2[nH]c3ccc(C4CCN(C(=O)CN5CC(F)(F)C5)CC4)cc3c2C(C)C)cc(C)n1 [Example 340, 2-(3,3-difluoroazetidin-1-yl)-1-(4-(2-(2,6-dimethylpyridin-4-yl)-3-isopropyl-1H-indol-5-yl)piperidin-1-yl)ethan-1-one]	104 nM	36000 nM	14.7 nM					
Cc1cc(-c2[nH]c3ccc(C4CCN(CC(=O)N5CCC[C@@H](O)C5)CC4)cc3c2C(C)C)cc(C)n1 [Example 209, (R)-2-(4-(2-(2,6-dimethylpyridin-4-yl)-3-isopropyl-1H-indol-5-yl)piperidin-1-yl)-1-(3-hydroxypiperidin-1-yl)ethan-1-one]	13 nM	604 nM	3.5 nM					
Cc1cc(-c2[nH]c3ccc(C4CCN(Cc5nnn[nH]5)CC4)cc3c2C(C)C)c(C)cn1 [Example 695, 5-(1-((1H-tetrazol-5-yl)methyl)piperidin-4-yl)-2-(2,5-dimethylpyridin-4-yl)-3-isopropyl-1H-indole]	111 nM	> 50000 nM	1310 nM					
CNCC(=O)N1CCC(c2ccc3[nH]c(-c4cc(C)nc(C)c4)c(CC(F)F)c3c2)CC1 [Example 535, 1-(4-(3-(2,2-difluoroethyl)-2-(2,6-dimethylpyridin-4-yl)-1H-indol-5-yl)piperidin-1-yl)-2-(methylamino)ethan-1-one]	86.5 nM	258 nM	10 nM					
Cc1cc(-c2[nH]c3ccc(C4CCN(C(=O)c5ccc6n(c5=O)CCC6)CC4)cc3c2C(C)C)cc(C)n1 [Example 144, 6-(4-(2-(2,6-dimethylpyridin-4-yl)-3-isopropyl-1H-indol-5-yl)piperidine-1-carbonyl)-2,3-dihydroindolizin-5(1H)-one]	170 nM	> 50000 nM	20 nM					
Cc1cc(-c2[nH]c3ccc(C4CCN(C5COC5)CC4)cc3c2C(C)C)c(F)c(C)n1 [Example 729, 2-(3-fluoro-2,6-dimethylpyridin-4-yl)-3-isopropyl-5-(1-(oxetan-3-yl)piperidin-4-yl)-1H-indole]	33.6 nM	3620 nM	10.1 nM					
Cc1cc(-c2[nH]c3ccc(C4CCN(C(=O)CNCCC(C)C)CC4)cc3c2C(C)C)cc(C)n1 [Example 393, 1-(4-(2-(2,6-dimethylpyridin-4-yl)-3-isopropyl-1H-indol-5-yl)piperidin-1-yl)-2-(isopentylamino)ethan-1-one]			7.9 nM				37.8 nM	800 nM
Cc1cc(-c2[nH]c3ccc(C4CCN(C5CCOCC5)CC4)cc3c2C(C)C)c(F)cn1 [Example 715, 2-(5-fluoro-2-methylpyridin-4-yl)-3-isopropyl-5-(1-(tetrahydro-2H-pyran-4-yl)piperidin-4-yl)-1H-indole]	3.8 nM	2990 nM	20.7 nM					
Cc1cc(-c2[nH]c3ccc(C4CCN(C(=O)CN(C)CC(O)c5ccccc5)CC4)cc3c2C(C)C)cc(C)n1 (stereo not drawn) [Example 399, 1-(4-(2-(2,6-dimethylpyridin-4-yl)-3-isopropyl-1H-indol-5-yl)piperidin-1-yl)-2-((2-hydroxy-2-phenylethyl)(methyl)amino)ethan-1-one]	66.9 nM	688 nM	6.1 nM					
Cc1nccc(-c2[nH]c3ccc(C4CCNCC4)cc3c2C(C)C)c1Cl [Example 44, 2-(3-chloro-2-methylpyridin-4-yl)-3-isopropyl-5-(piperidin-4-yl)-1H-indole]	14.4 nM	1640 nM	13.9 nM					
Cc1nccc(-c2[nH]c3ccc(C4CCNCC4)cc3c2C(C)C)c1C [Example 30, 2-(2,3-dimethylpyridin-4-yl)-3-isopropyl-5-(piperidin-4-yl)-1H-indole]	22.3 nM	708 nM	28.5 nM					
CCc1c(-c2ccnc(N(C)C)c2)[nH]c2ccc(C3CCN(C4CCN(CC(C)C)CC4)CC3)cc12 [Example 767, 4-(3-ethyl-5-(1′-isobutyl-[1,4′-bipiperidin]-4-yl)-1H-indol-2-yl)-N,N-dimethylpyridin-2-amine]	1230 nM	98 nM	3750 nM					
Cc1cc(-c2[nH]c3ccc(C4CCN(CC(=O)N(C)CCCO)CC4)cc3c2C(C)C)cc(C)n1 [Example 288, 2-(4-(2-(2,6-dimethylpyridin-4-yl)-3-isopropyl-1H-indol-5-yl)piperidin-1-yl)-N-(3-hydroxypropyl)-N-methylacetamide]	34.6 nM	1470 nM	10 nM					
Cc1cc(-c2[nH]c3ccc(C4CCN(C(=O)C5(O)CC5)CC4)cc3c2C(C)C)cc(C)n1 [Example 107, (4-(2-(2,6-dimethylpyridin-4-yl)-3-isopropyl-1H-indol-5-yl)piperidin-1-yl)(1-hydroxycyclopropyl)methanone]	28.4 nM	13400 nM	14.6 nM					
Cc1cc(-c2[nH]c3ccc(C4CCN(C(=O)Cc5cn(C)cn5)CC4)cc3c2C(C)C)cc(C)n1 [Example 137, 1-(4-(2-(2,6-dimethylpyridin-4-yl)-3-isopropyl-1H-indol-5-yl)piperidin-1-yl)-2-(1-methyl-1H-imidazol-4-yl)ethan-1-one]	39.1 nM	1780 nM	8.2 nM					
